Source: article PMC6020689 (Angewandte Chemie (International ed. in English), 2018)

Biological target: EtCYP112 (Erwinia tracheiphila, UniProt A0A0M2KIP9)
Assay: GC-MS product analysis, reconstituted system
Format: biochemical
Conditions: spinach Fd, EtFdR

Compound: C=C1C[C@]23C[C@H]1CC[C@H]2[C@]1(C)CCC[C@@](C)(C(=O)O)[C@H]1[C@@H]3C(=O)O [GA12]
- GC-MS product analysis, reconstituted system (NADPH in excess): reconstituted system with purified ferredoxin reductase from E. tracheiphila (EtFdR) and spinach ferredoxin (Fd), converting GA12

Compound: C=C1C[C@]23C[C@H]1CC[C@H]2[C@]1(C=O)CCC[C@@](C)(C(=O)O)[C@H]1[C@@H]3C(=O)O [GA24]
- GC-MS product analysis, reconstituted system (NADPH): while GA15 and GA24 were readily converted to GA9, GA25 is not
